Experiment in one data set: not given
The note with it: pH 2.0.
Usually logD stands for lipophilicity at a set pH, counting ionised and neutral species. Take `O=S(=O)(/C=C/C=C/Sc1ccccc1)c1ccccc1`: the logD was found to be 4.03.
The molecule `O=C1[C@@H](CSCc2ccccc2)NC(=S)N1C1CCCCC1` yielded a pH-dependent lipophilicity (logD) of 4.58.
The molecule `COC(=O)C(=O)C1=C(c2ccc(Cl)cc2)NC(=O)N[C@@H]1c1ccc(Cl)cc1` displayed a logD of 3.56.
For `CN(C)S(=O)(=O)c1cccc(Cn2c(=O)c(=O)n(Cc3ccccc3)c3ccc(Cl)cc32)c1`, the logD is 3.37.

The same data set, now with this note: pH 5.0.
In the case of `N#C[C@@H](Cc1cccs1)c1ncc(C(F)(F)F)cc1Cl`, the logD turned out to be 4.09.
In the case of `CCN(CC)S(=O)(=O)c1ccc2nnn(OCC(=O)NC(c3ccccc3)c3ccccc3)c2c1`, the logD was determined as 4.49.
`COc1ccc(Oc2c(C(F)(F)F)oc3cc(OC(=O)N4CCOCC4)ccc3c2=O)cc1`: the logD was found to be 4.63.
`C[C@H]1C[C@H](NC(=S)NCc2csc3ccccc23)CC(C)(C)C1` registered a logD of 6.21.
In the case of `CCCN(CCC)S(=O)(=O)c1ccc(C(=O)OCCN2C(=O)C3C4c5ccccc5C(c5ccccc54)C3C2=O)cc1` (stereo not given), the logD was determined as 4.17.
Molecule `Cc1c(Nc2nc3ccccc3nc2Nc2cccc(Cl)c2)c(=O)n(-c2ccccc2)n1C` returned a logD of 5.96.
In the case of `CS(=O)(=O)N(CC(=O)N1CCc2ccccc2C1)c1ccc(OCc2ccccc2)cc1`, the logD is 4.91.
For the molecule `C[C@@H]1CCCC[C@H]1NC(=O)COC(=O)C1=COCCO1`, the log distribution coefficient (logD) was found to be 2.48.
For the molecule `C[C@@]1(c2ccc(Cl)cc2)NC(=S)N2[C@@H]1NC(=S)N2c1ccc(Cl)cc1`, the logD is 4.94.
On the same count and under the same terms, next, `COc1ccc([C@@H]2[C@H]3C(=O)N(c4sc5c(c4C#N)CCCC5)C(=O)[C@@H]3ON2c2ccccc2C)cc1`: 5.83; `Cc1ccc([N+](=O)[O-])cc1N1C(=O)[C@@H]2[C@@H](C1=O)[C@@H](C(=O)C(C)(C)C)N1N=CC=C[C@H]21`: 3.85; `COC(=O)[C@H]1OC(c2ccccc2)O[C@H]1C(=O)OC` (stereo not given in full): 2.49.
`COc1cc(/C=N\n2cnc3sc4c(c3c2=O)CCCC4)ccc1OCc1ccccc1`: the logD amounted to 5.68.
Take `CC(=O)c1cccc(N2C(=O)[C@@H]3[C@H](C2=O)[C@@H]2C=C[C@H]3C2=C(c2ccc(C)cc2)c2ccc(C)cc2)c1`: the logD was determined as 6.25.
`COc1ccc([C@H]2CC(=O)C3=C(C2)Nc2ccc4ccccc4c2[C@@H]3c2ccc3c(c2)OCO3)cc1`: the logD stood at 5.77.
For `CCN(CC)S(=O)(=O)c1ccc(/C=C/C(=O)NC2CCCCC2)cc1`, the logD worked out at 4.34.
Turning to `CC[C@]1(C)NC(=S)N2N1C(=S)N[C@@]2(C)CC`, the logD came out at 2.44.
Same read-out and setting: then `CCOc1cc(C(=O)Nc2ccc(OC)c(OC)c2)cc(OCC)c1OCC`, with 4.11; and `CCNC(=O)/C(=C/c1cn(-c2ccccc2)nc1-c1cccs1)NC(=O)c1ccccc1`, with 4.64.
`O=C1[C@H]2OC[C@H](O2)[C@H]2[C@@H]1[C@@H]1C=C[C@H]2C1` returned a logD of 1.48.
The same measure, in the same setting: next, `Cc1c(NC(=O)[C@@H]2CCCCN2S(=O)(=O)c2ccc(Cl)cc2)c(=O)n(-c2ccccc2)n1C`: 3.89; `O=C(Nc1cccc(Cl)c1)c1cc2n(n1)[C@H](C(F)(F)F)C[C@@H](c1ccccc1)N2`: 5.92; `Cc1ccccc1N[C@@H](c1ccccc1F)P(=O)(OC(C)C)OC(C)C`: 5.63.
`Cc1ccc(N2C(=O)N(c3cccc(Cl)c3)[C@@H]3CS(=O)(=O)C[C@@H]32)cc1` displayed a logD of 3.56.
The same measure, in the same setting: next, `C=C1NC(=S)N[C@H](c2ccc(-c3ccc(C(C)=O)cc3)o2)[C@H]1C(=O)OC(C)(C)C`: 4.53.
The molecule `COc1ccc([C@@H]2CC(=O)N(c3sc4c(c3C#N)CCCC4)C3=C2C(=O)CCC3)c(OC)c1` gave a logD of 4.55.

Still in this data set, the particulars now being: pH 6.5.
`COC(=O)c1cc(N2C(=O)[C@H]3[C@@H](C2=O)[C@]2(C(OC(C)=O)OC(C)=O)C=C[C@H]3O2)ccc1Cl` came in with a logD of 3.77.
`COc1cc(/C=C(\NC(=O)c2ccccc2)C(=O)Nc2cccc(CO)c2)ccc1OC(C)=O` had a logD of 4.04.
Regarding `CCCCNC(=S)N(C)/N=C/c1ccc(OCc2ccc(Cl)cc2)c(OC)c1`, the logD was determined as 6.8.
`O=C(c1ccc(Cl)cc1)N(Cc1ccc(Cl)c(Cl)c1)N1C(=O)[C@@H]2CCCC[C@H]2C1=O`: the logD was determined as 5.51.
As for `O=C(CN1N=N[C@@H]2C(=O)N(c3ccc(Cl)cc3Cl)C(=O)[C@@H]21)Nc1ccccc1`, the logD is 4.3.
Same read-out and setting: then `O=C(CCCCCN1C(=O)/C(=C\c2cccs2)SC1=S)N1CCOCC1`, with 4.92.
The molecule `C[C@@H](CCc1ccccc1)NC(=O)C(=O)NC[C@@H]1COc2ccccc2O1` registered a logD of 4.8.
`C[C@H]1CCc2nc(NC(=O)c3ccc(F)c(F)c3)sc2C1` gave a logD of 4.79.
`CCOC(=O)c1[nH]c(C)c(C(=O)OCC(=O)N2CCc3ccccc32)c1C` had a logD of 4.47.
Turning to `CC[C@@H]1CCCCN1C(=O)COc1cccc2c1CCN(Cc1ccc(Cl)cc1)C2=O`, the logD worked out at 5.23.
In the case of `Cc1ccc(S(=O)(=O)/N=C2\SC(=CN(C)C)C(=O)N2C2CCCCC2)cc1`, the logD is 4.75.
Turning to `CCCOc1ccc(N2C(=O)C[C@H](N3CCNC3=S)C2=O)cc1`, the logD turned out to be 2.68.

The data set is the same for the next values; noted with them: pH 7.3.
Molecule `COc1cccc([C@@H]2C3=C(CCCC3=O)N=C(C)C2C(=O)OC[C@@H]2CCCO2)c1` (stereo not given in full) yielded a logD of 3.62.

The same data set, now with this note: pH 8.0.
As for `CC(=O)N(c1ccccc1)c1nc(/C=C/C(=O)Nc2ccc3c(c2)OCO3)cs1`, the logD was determined as 4.37.

Still in this data set, the particulars now being: pH 9.2.
In the case of `Cc1cc(C(=O)NCCc2c(C)[nH]c3ccccc23)ccc1[N+](=O)[O-]`, the pH-dependent lipophilicity (logD) is 4.12.

The data set is the same for the next values; noted with them: pH 10.0.
In turn, `CC/N=C1\S/C(=C\c2cn(CC(=O)Nc3cccc(C)c3)c3ccccc23)C(=O)N1CC` showed a logD of 5.8.
`CC[C@@H]1CCCCN1C(=O)[C@H]1CC(c2cc(Cl)c(OC)cc2OC)=NO1` showed a logD of 4.55.
In the case of `CCOC(=O)c1c(CC(C)C)csc1/N=C/c1c(C)nn(-c2ccccc2)c1O`, the logD worked out at 5.16.
In turn, `CCc1ccc([C@@H]2C(C(=O)OC(C)C)=C(C)N=C3SCCC(=O)N32)cc1` showed a logD of 4.75.
Consider `CCOC(=O)[C@H]1N=C(C2=C(O)c3ccccc3C2=O)[C@@H]2C(=O)N(N(C)c3ncc(C(F)(F)F)cc3Cl)C(=O)[C@@H]21`, for which the logD was 4.38.
Turning to `COc1ccc(/N=C/c2ccc(/C=N/c3ccc(OC)cc3)cc2)cc1`, the logD was found to be 5.24.
Same read-out and setting: next, `CCOCCOC(=O)[C@H](C)n1cnc2sc3c(c2c1=O)CC[C@H](C)C3`: 4.25; `COc1ccc2c(c1)C(=O)N(Cc1ccco1)C(=O)/C2=C\Nc1c(C)n(C)n(-c2ccccc2)c1=O`: 4.66; `CCOC(=O)C1=C(N)N2C(=O)[C@H](C)SC2=C(C(=O)OCC)[C@H]1c1ccc(Cl)cc1Cl`: 5.49.
As to `CC(=O)/N=c1/sc2nc3ccccc3nc2n1N(C(C)=O)C(C)=O`, the logD is 1.1.
`CC(C)(C)C(=O)[C@H]1[C@H](c2ccsc2)C(C#N)(C#N)[C@H]2C=Cc3ccccc3N12` came in with a logD of 3.37.

Still in this data set, the particulars now being: pH 10.5.
For `CCN(C(=O)[C@@H](C)OC(=O)c1cc(OC)c(OC)c(OC)c1)c1ccccc1`, the logD is 3.4.
Regarding `CN(c1ccccc1)S(=O)(=O)c1ccc(C(=O)N2CCN(c3ccccc3Cl)CC2)cc1`, the logD was 5.31.
Still for that read-out and setting: then `COc1cccc(C2=NN=C3OC(N)=C(C#N)[C@H](c4cc(OC)c(OC)cc4Br)[C@@H]32)c1`, with 4.52; and `CCCc1[nH]nc2c1[C@H](c1ccsc1C)C(C#N)=C(N)O2`, with 3.83; and `CC[C@@H]1CCCCN1C(=O)CSc1nc(C)cc(C)n1`, with 3.61.
Regarding `Cc1cccc(-n2c(S[C@@H](C)C(N)=O)nnc2-c2cccc(S(=O)(=O)N(C)C)c2)c1`, the logD was 3.81.
`CCOc1cc(/C=N/n2cnc3sc(C)c(C)c3c2=O)cc(Br)c1OCC(N)=O` showed a logD of 4.98.
As for `N#CC1=C(N)OC2=NN=C(c3cccs3)[C@@H]2[C@@H]1C1CCCCC1`, the logD turned out to be 4.64.
Same read-out and setting: then `Cc1cc(C)n(CCOC(=O)[C@H]2[C@H](C=C(Cl)Cl)C2(C)C)n1`, with 4.76.
`COC(=O)c1c(C)sc2c1OC(N)=C(C#N)[C@@H]2c1cc(Br)cs1` returned a logD of 5.06.
Still for that read-out and setting: next, `COc1cc([C@@H]2C(C#N)=C(N)Oc3[nH]nc(C)c32)ccc1OCc1cccc(F)c1`: 4.42.

The nature of a further data set: method code SF, from DOI: 10.1016/j.ejps.2012.10.019, PMID: 23131797. The note with it: pH 5.0.
As to `CCCCCCSC1=C(C#N)C(c2cccs2)C(C(=O)Nc2ccccc2OC)=C(C)N1` (stereo not given), the logD came out at 6.28.
In turn, `Cc1c(C(=O)Nc2ccc(S(=O)(=O)N3CCCCCC3)cc2)oc2ccc(F)cc12` showed a logD of 5.68.
With `COC(=O)c1cc(C(=O)OCC(=O)c2[nH]c(C)c(C(C)=O)c2C)cc([N+](=O)[O-])c1`, the logD amounted to 3.82.
`N#Cc1nc2c(S(=O)(=O)c3ccccc3)c(N)n(Cc3ccc(F)cc3)c2nc1C#N` displayed a logD of 4.86.
On the same count and under the same terms, then `O=C(OCC(=O)N(C1CCCCC1)C1CCCCC1)c1ccc(Cl)nc1`, with 4.99.
Regarding `CN(C1=NS(=O)(=O)c2ccccc21)c1ccc(OC(=O)c2ccccc2)cc1`, the logD amounted to 4.26.
`CC(C)NC(=S)N1CCN(S(=O)(=O)c2cccc(C(F)(F)F)c2)CC1` showed a logD of 3.9.
On the same count and under the same terms, then `CCCc1ccc(OCc2ccc(C(=O)Nc3ccccc3C(=O)OC)o2)c(OC)c1`, with 5.89; and `CC1=CC(C)C(CO)(CO)C(C)C1` (stereo not given), with 2.93.
In turn, `CCCCCC(=O)NC1(CCC)CCCC1` had a logD of 4.28.

The same data set, now with this note: pH 6.5.
The molecule `CCCn1c(SCc2cc(=O)n3cc(Br)ccc3n2)nnc1-c1cccc(C)c1` displayed a logD of 4.43.
Turning to `O=C(Nc1ccc(N2CCN(C(=O)c3ccco3)CC2)c(Cl)c1)c1c(F)c(F)c(F)c(F)c1F`, the logD was found to be 5.85.

The data set is the same for the next values; noted with them: pH 7.3.
In the case of `CCn1c(SCc2nc3c4cnn(C)c4ncn3n2)nnc1-c1cc(C(F)(F)F)n(C)n1`, the logD was found to be 3.85.

Still in this data set, the particulars now being: pH 10.5.
Molecule `Nc1nc(SCC(=O)N(CCO)CCO)nc2sc3c(c12)CCCC3` had a logD of 3.2.
In the case of `CCOC(=O)c1sc(NCCNc2nc(C)c(C(=O)OCC)s2)nc1C`, the logD stood at 4.66.
Consider `CCOc1cc(-c2nnc(-c3ccco3)o2)cc(OCC)c1OCC`, for which the logD came out at 3.96.
Still for that read-out and setting: then `CCOC(=O)N1CCN(c2nc(C(F)(F)F)nc3c(C)cc(C)cc23)CC1`, with 5.92; and `O=C(c1cc2ccccc2s1)N1CCCN(c2ccc(C(F)(F)F)cn2)CC1`, with 4.92.
